According to PMC4139204, “Insight into the Architecture of the NuRD Complex” (The Journal of Biological Chemistry, 2014):
“Also recorded” adds a separate entry of the source.

What was measured:
[1] = target: T1, RbAp48 (Homo sapiens, UniProt Q09028); assay: GST pulldown of in vitro translated 35S-RbAp48 by GST-MTA1 fragments; format: binding; details: GST-MTA1 fusion on glutathione-Sepharose beads with in vitro translated 35S-labeled RbAp48, 2 h, 4 °C; SDS-PAGE and autoradiography
T1 construct: made in house; host or cells: insect cells
Description: FLAG-tagged human RbAp48 (Uniprot: Q09028) was constructed by PCR and cloned into pcDNA3. MTA1 constructs (residues 1–250, 230–550, and 530–715) were generated by PCR amplification of the human gene (Uniprot: Q13330) and cloned into pcDNA3. MTA1 constructs (residues 530–635, 625–715, 643–695, and 656–686) were created by PCR amplification from codon-optimized sequences for bacterial expression (GenScript) and cloned into pGEX-6P with an N-terminal GST tag.
pcDNA3 constructs were expressed in vitro in the presence of [^35S]methionine. GST-MTA1 constructs were expressed in the BL21 strain of Escherichia coli and induced with 0.4 mM isopropyl 1-thio-β-D-galactopyranoside. The culture was incubated with shaking at 25 °C overnight, and the protein was subsequently purified by glutathione affinity chromatography. GST-H4-(1–48) was expressed and purified by glutathione affinity chromatography as described previously ([16]). Recombinant RbAp48 was expressed and purified from insect cells as described previously ([17]).
GST pulldown assays were performed by incubating equal amounts of GST or GST-MTA1 fusion proteins immobilized on glutathione-Sepharose beads (Amersham Biosciences) with in vitro translated ^35S-labeled RbAp48. The mixtures were incubated for 2 h at 4 °C and washed 5 times with binding buffer. Complexes were resolved by SDS-PAGE and visualized by autoradiography.

[2] = target: T1, RbAp48; assay: Isothermal titration calorimetry (ITC) of MTA1 peptides binding to RbAp48; details: MicroCal iTC200, 25 °C, 20 mM Tris, pH 7.5, 150 mM NaCl, MTA1 peptide (250 μM) titrated into RbAp48 (25 μM, 200 μl), 20 injections of 2 μl, single-site 1:1 fit, representative measurement, standard error from single curve fit, each titration in duplicate, read-out: dissociation constant (KD)
Protocol: pcDNA3 constructs were expressed in vitro in the presence of [^35S]methionine. […] GST-H4-(1–48) was expressed and purified by glutathione affinity chromatography as described previously ([16]). Recombinant RbAp48 was expressed and purified from insect cells as described previously ([17]).
ITC measurements were carried out at 25 °C using a MicroCal iTC200 titration calorimeter. […] The reference power was set to 2 μcal/s, and the cell was stirred continuously at 1000 rpm. The evolved heats were integrated and normalized for protein concentration.

[3] = tested on: MTA1-RbAp48 complex; assay: Competition pulldown: FOG1-(1–15) peptide added to MTA1-FLAG-RbAp48 complex; format: binding, human; details: FLAG-RbAp48 on anti-FLAG beads; for effect of FOG1 peptide on MTA1-RbAp48 interaction: increasing amounts of FOG1-(1–15) peptide
Protocol: RbAp48 and MTA1 constructs were in vitro translated in the presence of ^35S-labeled methionine using the TNT Quick Coupled Transcription/Translation kit (Promega) according to the manufacturer's instructions. In vitro translated ^35S-labeled FLAG-RbAp48 (20 μl) was immobilized onto agarose beads conjugated to anti-FLAG (M2) antibodies (Sigma) in binding buffer (50 mM Tris, pH 7.5, 300 mM NaCl, 0.5% Triton X-100, complete protease inhibitor mixture tablet (Roche Applied Science), and 1 mM DTT). The mixture was incubated with in vitro translated ^35S-labeled-MTA1 fragments (40 μl) at 4 °C for 2 h. The beads were then washed five times with binding buffer. Anti-FLAG beads alone were used as a negative control. Complexes were resolved by SDS-PAGE and visualized by autoradiography.
(§1) The structural data provide clear evidence that histone H4 and MTA1 bind mutually exclusively to RbAp48. […] Competition-binding experiments were performed to assess whether full-length MTA1 might inhibit the interaction of RbAp48 with H3 or FOG1 peptides and to confirm that H4 and MTA1 bind mutually exclusively to RbAp48. GST-H4-(1–48) was expressed in bacteria, immobilized onto glutathione beads, and used to pull down RbAp48 in the absence and presence of full-length MTA1 (Fig. 7A). In a complementary experiment (Fig. 7B), in vitro translated FLAG-RbAp48 was immobilized on anti-FLAG beads and used to pull down MTA1 in the absence and presence of histone H4-(1–48).
(§2) FIGURE 7. […] A, pulldown showing the binding of in vitro translated ^35S-labeled RbAp48 to GST-histone H4-(1–48) (immobilized on glutathione beads) in the absence and presence of in vitro translated MTA1. B, pulldown showing the binding of in vitro translated ^35S-labeled MTA1 to FLAG-RbAp48 (immobilized on anti-FLAG beads) in the absence and presence of histone H4-(1–48). C, pulldown assays showing the effect of adding increasing amounts of FOG1-(1–15) peptide to a complex formed between in vitro translated ^35S-labeled FLAG-RbAp48 (immobilized on anti-FLAG beads) and in vitro translated ^35S-labeled full-length MTA1 or MTA1-(530–715). […]

[4] = tested on: RbAp46/48; details: GST pulldown; ref [47]; cited from earlier work
Description: Previous studies using GST pulldown assays have mapped the domains that mediate the interaction between MTA1/2 and RbAp46/48. […] Our crystallographic and biochemical data reveal that a short motif near the C-terminal end of MTA1 is able to bind ind ...

[5] = tested on: RbAp46 mutant (E356Q, D357N, E359Q, D360N, L30Y); details: D360N and L30Y; cited from earlier work
[6] = tested on: MTA1-RbAp48 complex; assay: Competition pulldown: FLAG-RbAp48 pulls down MTA1 in absence and presence of histone H4-(1–48); format: binding, human; details: FLAG-RbAp48 on anti-FLAG beads, in vitro translated 35S-labeled MTA1, absence and presence of histone H4-(1–48)
Protocol: as §1, §2

[7] = target: RbAp46; details: for RbAp46; ref [16]; cited from earlier work

T1 sequence (Q09028 whole entry, the tested form may be a part): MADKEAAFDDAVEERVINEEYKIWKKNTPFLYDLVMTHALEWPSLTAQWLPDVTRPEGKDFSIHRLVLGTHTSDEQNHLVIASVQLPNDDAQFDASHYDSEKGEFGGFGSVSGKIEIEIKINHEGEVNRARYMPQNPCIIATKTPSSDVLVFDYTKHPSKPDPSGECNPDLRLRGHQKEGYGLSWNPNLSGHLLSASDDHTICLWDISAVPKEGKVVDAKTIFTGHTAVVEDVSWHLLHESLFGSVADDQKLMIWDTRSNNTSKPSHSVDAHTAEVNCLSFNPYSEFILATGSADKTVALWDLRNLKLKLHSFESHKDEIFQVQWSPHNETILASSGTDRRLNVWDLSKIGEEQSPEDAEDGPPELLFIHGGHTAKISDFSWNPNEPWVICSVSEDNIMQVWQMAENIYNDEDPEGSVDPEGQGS

## CC[C@H](C)[C@H](NC(=O)[C@H](CCCCN)NC(=O)[C@H](CCCNC(=N)N)NC(=O)[C@@H](NC(=O)[C@H](CCC(=O)O)NC(=O)[C@H](CCC(=O)O)NC(=O)[C@@H](NC(=O)[C@H](C)NC(=O)[C@H](CCSC)NC(=O)[C@H](Cc1ccc(O)cc1)NC(=O)[C@H](Cc1ccccc1)NC(=O)[C@@H](NC(=O)[C@H](CC(=O)O)NC(C)=O)C(C)C)[C@@H](C)O)[C@@H](C)O)C(=O)N[C@@H](CCCNC(=N)N)C(=O)N[C@@H](CCCCN)C(=O)N[C@@H](CC(C)C)C(=O)N[C@@H](CC(C)C)C(=O)N[C@@H](CO)C(=O)N[C@@H](CO)C(=O)N[C@@H](CO)C(=O)N[C@@H](CCC(=O)O)C(=O)N[C@H](C(=O)N[C@@H](CCCCN)C(=O)N[C@@H](CCCNC(=N)N)C(=O)N[C@@H](C)C(=O)N[C@@H](C)C(=O)N[C@@H](CCCNC(=N)N)C(=O)N[C@@H](CCCNC(=N)N)C(=O)N1CCC[C@H]1C(=O)N[C@@H](Cc1ccc(O)cc1)C(=O)N[C@@H](CCCCN)C(N)=O)[C@@H](C)O [MTA1-(656–686)]
[1]
  binding to RbAp48 in GST pulldown: sufficient to bind RbAp48; also recorded: shortest fragment of MTA1 capable of pulling down in vitro translated RbAp48

## Ac-KLLSSSETKRAARRPYKPIALRQSQA-NH2 [MTA1-(670–695)]
[2]
  Kd: 50 ± 7 nM

## FOG1-(1–15): peptide (residues 1–15) derived from the co-regulator FOG1
[3]; C-terminal MTA1 fragment (residues 530–715)
  effect of FOG1 peptide on MTA1-RbAp48 interaction: The same result was observed
[3]; Fig. 7, full-length MTA1 or MTA1-(530–715)
  competition for binding to RbAp48 (Fig. 7 title): do not compete for binding to RbAp48
[3]; full-length MTA1
  effect of FOG1 peptide on MTA1-RbAp48 interaction: unable to interfere with the MTA1-RbAp48 interaction

## GATA-type zinc finger domain of MTA1 (residues 392–448): predicted GATA-type zinc finger domain of MTA1 (ACESCYTTQSYQWYSWGPPNMQCRLCASCWTYWKKYGGLKMPTRLDGERPGPNRSNM; GATA-type zinc finger; UniProt Q13330 392-448, looked up, fragment)
[4]
  recognition of RbAp46/48: sufficient to recognize RbAp46/48

## GST-tagged H4 (residues 1–48): GST-H4-(1–48) expressed in bacteria and purified by glutathione affinity chromatography
[5]
  effect of RbAp46 mutations on interaction with H4: abrogate its interaction

## H4-(1–48): histone H4 residues 1–48
[6]
  competition of histone H4 with MTA1 for RbAp48: compete for the same binding surface on RbAp48
[7]
  Kd: 1000 nM
